The target of the assay is GLP-1 Receptor (Homo sapiens, UniProt P43220). Briefly: GLP-1R agonist cAMP stimulation assay (HEK293/GLP1R/CRE-LUC cells, cAMP dynamic 2 Kit). It is filed as cell-based. As to conditions: HEK293/CRE-Luc cell line stably expressing the GLP-1 Receptor, 30 min at 37° C. An outline of the steps: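 HEK293 cells stably expressing human GLP-1R with CRE-luciferase, 1000 cells/well in DPBS with 0.5 mM IBMX and 0.1% BSA, treated with compound in 1/2-log serial dilution for 30 min at 37 °C. cAMP then detected by HTRF (cAMP-d2 plus anti-cAMP cryptate), 1 h at room temperature in the dark.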
Chain of GLP-1 Receptor (P43220 24-463, species assumed): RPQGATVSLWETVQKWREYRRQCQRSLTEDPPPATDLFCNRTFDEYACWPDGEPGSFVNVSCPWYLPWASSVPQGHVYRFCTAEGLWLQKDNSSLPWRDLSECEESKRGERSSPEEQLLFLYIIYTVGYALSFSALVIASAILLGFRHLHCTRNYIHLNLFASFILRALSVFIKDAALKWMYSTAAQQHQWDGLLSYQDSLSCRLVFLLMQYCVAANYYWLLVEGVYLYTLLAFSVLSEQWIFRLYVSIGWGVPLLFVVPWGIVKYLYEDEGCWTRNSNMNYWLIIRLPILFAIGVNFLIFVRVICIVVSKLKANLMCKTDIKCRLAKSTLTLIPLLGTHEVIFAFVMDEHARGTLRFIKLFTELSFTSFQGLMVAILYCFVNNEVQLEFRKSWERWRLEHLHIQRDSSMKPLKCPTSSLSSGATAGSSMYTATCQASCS

Consider `Cc1nnc(-c2ccc3c(c2)nc(CN2CCC(c4cccc5c4O[C@@](C)(c4ccc(Cl)cc4F)O5)CC2)n3C[C@@H]2CCO2)[nH]1` [Compound 406a, 2-({4-[(2S)-2-(4-chloro-2-fluorophenyl)-2-methyl-2H-1,3-benzodioxol-4-yl]piperidin-1-yl}methyl)-5-(5-methyl-4H-1,2,4-triazol-3-yl)-1-{[(2S)-oxetan-2-yl]methyl}-1H-1,3-benzodiazole], for which the EC50 (commonly the concentration needed to bring the measured effect to its halfway point) came to 0.018 nM.
The compound `CC1(c2ccc(Cl)cc2F)Oc2cccc(C3CCN(Cc4nc5cc(-c6noc(=O)[nH]6)ccc5n4CC4(C#N)CC4)CC3)c2O1` (stereo not shown) [Compound 231a, 1-((2-((4-(2-(4-chloro-2-fluorophenyl)-2-methylbenzo[d][1,3]dioxol-4-yl)piperidin-1-yl)methyl)-5-(5-oxo-4,5-dihydro-1,2,4-oxadiazol-3-yl)-1H-benzo[d]imidazol-1-yl)methyl)cyclopropane-1-carbonitrile] had an EC50 of 0.031 nM.
As for `CO[C@H](C)Cn1c(CN2CCC(c3cccc4c3O[C@@](C)(c3ccc(Cl)cc3F)O4)CC2)nc2cc(-c3nnc(C(F)(F)F)[nH]3)cnc21` [Compound 247b, 4-[(2S)-2-(4-chloro-2-fluorophenyl)-2-methyl-2H-1,3-benzodioxol-4-yl]-1-({3-[(2R)-2-methoxypropyl]-6-[5-(trifluoromethyl)-4H-1,2,4-triazol-3-yl]-3H-imidazo[4,5-b]pyridin-2-yl}methyl)piperidine], the figure is 0.093 nM; as for `Nc1cccc(-c2ccc3c(c2)nc(CN2CCC(c4cccc(OCc5ccc(Cl)cc5F)n4)CC2)n3C[C@@H]2CCO2)n1` [Compound 212a, 6-{2-[(4-{6-[(4-chloro-2-fluorophenyl)methoxy]pyridin-2-yl}piperidin-1-yl)methyl]-1-{[(2S)-oxetan-2-yl]methyl}-1H-1,3-benzodiazol-5-yl}pyridin-2-amine], 7.5 nM.
For `Fc1cc(Cl)ccc1COc1cccc(C2CCN(Cc3nc4cc(-n5cc(C6CCCOC6)nn5)ccc4n3C[C@@H]3CCO3)CC2)n1` (stereo partly drawn) [Compound 211a, 2-[(4-{6-[(4-chloro-2-fluorophenyl)methoxy]pyridin-2-yl}piperidin-1-yl)methyl]-5-[4-(oxan-3-yl)-1H-1,2,3-triazol-1-yl]-1-{[(2S)-oxetan-2-yl]methyl}-1H-1,3-benzodiazole], a half-maximal effect (EC50) was put at 3.6 nM.
In the case of `Fc1cc(Cl)ccc1COc1ccc(F)c(N2CCN(Cc3nc4cc(-c5nnc(C(F)(F)F)[nH]5)nnc4n3C[C@@H]3CCO3)CC2)n1` [Compound 502a, 1-{6-[(4-chloro-2-fluorophenyl)methoxy]-3-fluoropyridin-2-yl}-4-[(7-{[(2S)-oxetan-2-yl]methyl}-3-[5-(trifluoromethyl)-4H-1,2,4-triazol-3-yl]-7H-imidazo[4,5-c]pyridazin-6-yl)methyl]piperazine], the EC50 is 0.092 nM.
The compound `CC(=O)Nc1ccc2c(c1)nc(CN1CC=C(c3cccc(OCc4ccc(Cl)cc4F)n3)CC1)n2C[C@@H]1CCO1` [Compound 135a, N-{2-[(4-{6-[(4-chloro-2-fluorophenyl)methoxy]pyridin-2-yl}-1,2,3,6-tetrahydropyridin-1-yl)methyl]-1-{[(2S)-oxetan-2-yl]methyl}-1H-1,3-benzodiazol-5-yl}acetamide] showed an EC50 of 0.64 nM.
Under `Fc1cc(Cl)ccc1COc1nc(N2CCN(Cc3nc4cc(-c5nnc(C(F)(F)F)[nH]5)cnc4n3C[C@@H]3CCO3)CC2)ncc1F` [Compound 511a, 4-[(4-chloro-2-fluorophenyl)methoxy]-5-fluoro-2-{4-[(3-{[(2S)-oxetan-2-yl]methyl}-6-[5-(trifluoromethyl)-4H-1,2,4-triazol-3-yl]-3H-imidazo[4,5-b]pyridin-2-yl)methyl]piperazin-1-yl}pyrimidine] stands 0.079 nM; under `C[C@]1(c2ccc(Cl)cc2F)Oc2cccc(C3CCN(Cc4nc5cc(-c6nnc(C#N)[nH]6)nnc5n4C[C@@H]4CCO4)CC3)c2O1` [Compound 448a, 5-[6-({4-[(2S)-2-(4-chloro-2-fluorophenyl)-2-methyl-2H-1,3-benzodioxol-4-yl]piperidin-1-yl}methyl)-7-{[(2S)-oxetan-2-yl]methyl}-7H-imidazo[4,5-c]pyridazin-3-yl]-4H-1,2,4-triazole-3-carbonitrile], 0.011 nM.
`Cc1nc(-c2noc(=O)[nH]2)cc2nc(CN3CCC(c4cccc5c4O[C@@](C)(c4ccc(Cl)cc4F)O5)CC3)n(C[C@@H]3CCO3)c12` [Compound 434a, 3-[2-({4-[(2S)-2-(4-chloro-2-fluorophenyl)-2-methyl-2H-1,3-benzodioxol-4-yl]piperidin-1-yl}methyl)-4-methyl-3-{[(2S)-oxetan-2-yl]methyl}-3H-imidazo[4,5-c]pyridin-6-yl]-4,5-dihydro-1,2,4-oxadiazol-5-one] showed an EC50 of 0.23 nM.
As for `O=C1CCCN1c1ccc2c(c1)nc(CN1CCC(c3cccc(OCc4ccc(Cl)cc4F)n3)CC1)n2C[C@@H]1CCO1` [Compound 119a, 1-{2-[(4-{6-[(4-chloro-2-fluorophenyl)methoxy]pyridin-2-yl}piperidin-1-yl)methyl]-1-{[(2S)-oxetan-2-yl]methyl}-1H-1,3-benzodiazol-5-yl}pyrrolidin-2-one], the figure is 7.2 nM; as for `CC(C(=O)Nc1ccc2c(c1)nc(CN1CCC(c3cccc(OCc4ccc(Cl)cc4F)n3)CC1)n2C[C@@H]1CCO1)n1ccnc1` (stereo partly drawn) [Compound 195a, N-{2-[(4-{6-[(4-chloro-2-fluorophenyl)methoxy]pyridin-2-yl}piperidin-1-yl)methyl]-1-{[(2S)-oxetan-2-yl]methyl}-1H-1,3-benzodiazol-5-yl}-2-(1H-imidazol-1-yl)propanamide], 0.63 nM.
As for `CC1(c2ccc(Cl)cn2)Oc2cccc(C3CCN(Cc4nc5cc(-c6noc(=O)[nH]6)ncc5n4C[C@@H]4CCO4)CC3)c2O1` (stereo partly drawn) [Compound 343a, 3-[2-({4-[2-(5-chloropyridin-2-yl)-2-methyl-2H-1,3-benzodioxol-4-yl]piperidin-1-yl}methyl)-3-{[(2S)-oxetan-2-yl]methyl}-3H-imidazo[4,5-c]pyridin-6-yl]-4,5-dihydro-1,2,4-oxadiazol-5-one], the figure is 0.079 nM; as for `CC(C)C(=O)Nc1ccc2c(c1)nc(CN1CCC(c3cccc(OCc4ccc(Cl)cc4F)n3)CC1)n2C[C@@H]1CCO1` [Compound 105a, (S)—N-(2-((4-(6-((4-chloro-2-fluorobenzyl)oxy)pyridin-2-yl)piperidin-1-yl)methyl)-1-(oxetan-2-ylmethyl)-1H-benzo[d]imidazol-5-yl)isobutyramide], 0.175 nM; as for `Cc1ncccc1C(=O)Nc1ccc2c(c1)nc(CN1CCC(c3cccc(OCc4ccc(Cl)cc4F)n3)CC1)n2C[C@@H]1CCO1` [Compound 188a, N-{2-[(4-{6-[(4-chloro-2-fluorophenyl)methoxy]pyridin-2-yl}piperidin-1-yl)methyl]-1-{[(2S)-oxetan-2-yl]methyl}-1H-1,3-benzodiazol-5-yl}-2-methylpyridine-3-carboxamide], 0.043 nM.
`CC1(c2ccccc2)Oc2cccc(C3CCN(Cc4nc5cc(-c6nnc(C(F)(F)F)[nH]6)ccc5n4C[C@@H]4CCO4)CC3)c2O1` (stereo partly drawn) [Compound 405a, 2-{[4-(2-methyl-2-phenyl-2H-1,3-benzodioxol-4-yl)piperidin-1-yl]methyl}-1-{[(2S)-oxetan-2-yl]methyl}-5-[5-(trifluoromethyl)-4H-1,2,4-triazol-3-yl]-1H-1,3-benzodiazole]: the EC50 came out at 0.53 nM.

For the origin of these results see US20230391760A1, “HETEROCYCLIC GLP-1 AGONISTS” (Gasherbrum Bio, Inc., priority 2020, published 2023).
